Test results taken from patent US6896895B2, “Carotenoid esters, carotenoid-enriched feeds, and methods of pigmenting foods and foodstuffs” (DSM IP Assets B.V., priority 2000, dated 2005).
Marks after values point to notes of the source that are not given here.

Tests used:
[1] = tested on: skin and shanks of broilers; test: Reflectance colorimetry and visual classification of skin and shanks of broilers; assay type: in vivo, broiler chickens (Ross 308, Ross 508); set-up: key to Shanks Visual Classification / Skin Visual Classification: −; (+); +; ++ = good color; o = orange; conditions: dry carcasses, average over doses, Table 6
Description: (§1) Pigmentation efficacy was assessed in egg yolk, in the back skin of the broiler carcass, and in broiler shanks by reflectance colorimetry accompanied by visual scoring (Roche Colour Fan). The deposition of the ethyl-β-apo-8′-carotenoate (control) and the other carotenoid esters was determined in egg yolk and in the broiler back skin. In addition, the carotenoid levels in plasma and abdominal fat were measured.
(§2) The trials were carried out using chickens of the type Ross 308 (trials MC-24/98 and MC-02/99) and Ross 508 (trials MC-11/99, MC-16/99, MC-24/99, and MC-03/00) (Couvir de la Bohardière, F-49290 Saint Laurent de la Plaine). One-day old broiler chickens, separated by sex, were divided by weight into experimental groups of ten animals each and reared in floor pens littered with wood shavings. The chickens were fed a low carotenoid basal grower diet until day 22 (trials MC-24/98, MC-02/99, and MC-11/99) or until day 15 (trials MC-16/99, MC-24/99, and MC-03/00). The low carotenoid basal grower diet contained less than 2 mg total xanthophylls per kg of feed, and its composition is described in Table 2. For the subsequent experimental period of three weeks, the birds received the basal diet supplemented with an appropriate pigment. The feed was given in the form of crumbled pellets during the first week and as pellets thereafter. The animals had unrestricted access to feed and water. A given treatment involved one group of male and one group of female chickens. Each group of chickens was weighed at day 22 (trials MC-24/98, MC-02/99, and MC-11/99) or day 15 (trials MC-16/99, MC-24/99, and MC-03/00) and on day 43. On day 42, five chickens per group were selected at random, labelled, and blood samples were taken from the jugular vein. At the end of the experiment (day 44) the animals were slaughtered in a commercial slaughterhouse (Freyburger, Dannemarie, France). The following day, the color of the skin (hind back of carcasses) and the shanks of the labelled chicken were measured by reflectance colorimetry (Minolta CR 200 apparatus, CIE-Lab system). Samples of the dorsal skin and abdominal fat were obtained, pooled for each experimental group, and the carotenoid concentration was determined. The concentration of carotenoids in feed, plasma, skin, and abdominal fat was determined by standard procedures as described after Tables 1 and 2.
The color of broiler skin and shanks was measured using a tristimulus Minolta CR-300 Chromameter with diffuse D65-illumination and a 0° viewing angle. The color of the skin was read at three different points on the back of the dry broiler carcasses and average values of the triple measurements were recorded. The color of shanks was measured using single measurements at the ball between the toes.
(§3) The color data were expressed as CIE L*a*b*-values including h*(hue) and C* (chroma). The values given in the tables per treatment and trial represent averages of color measurements of four egg yolk pools, ten broiler back skins, or ten broiler shanks (5 males and 5 females).

[2] = Carotenoid ester content in plasma, back skin and abdominal fat of broilers (HPLC); assay type: in vivo, broiler chickens (Ross 308, Ross 508); conditions: average over doses, Table 4
Description: as §1, §2
The content of the various carotenoid esters in feed was determined according to the method of Schierle, et al. (J. Schierle , N. Faccin, V. Riegert, Analytical Methods for Vitamins and Carotenoids in Feed, Revised supplement: Determination of Stabilized Apocarotenoic Ester and Canthaxanthin in Premixes and Feeds, Roche publication no. 50771 (1995), publicly available from. F. Hoffmann-La Roche Ltd., CH-4070 Basel). This method was modified in that the mobile phase of the normal-phase HPLC contained 0.5% instead of 7% acetone in n-hexane, improving the separation of the E/Z-isomers of the carotenoid esters. Peaks were related to all-E- and Z-isomers of the various carotenoid esters by chromatography of heat-isomerized solutions of the respective reference substances in n-hexane. The HPLC system was calibrated with the all-E-isomer of ethyl β-apo-8′-carotenoate. The response factor of the various derivatives was deduced from that of ethyl β-apo-8′-carotenoate taking into account the respective molecular weight. The content of the Z-isomer fractions was calculated based on the response of the all-E-isomer and using a correction factor of 1.4 to account for the lower specific absorbance of the Z-isomers.
(§4) The HPLC-system for in-feed analysis was also used to quantify the carotenoid esters in egg yolk, broiler tissues, and broiler plasma, but the extraction procedure was different for the various matrices.
For plasma extraction, 1.0 g of the well-mixed plasma sample was introduced into a 10 ml test tube with 1.0 ml of demineralized water and 4.0 ml of ethanol, and the contents mixed on a Vortex shaker. […]

[3] = tested on: egg yolk; test: Egg yolk colour: reflectance colorimetry and Roche Yolk Colour Fan; assay type: in vivo, laying hens (ISA Brown); conditions: egg yolk, laying hens
Description: as §1
The trials were carried out following the standard experimental design used for egg yolk pigmentation trials at the Roche Research Center for Animal Nutrition (CRNA, F-68305 Village-Neuf, France). Each year in February the pigmentation trials are started with a new flock of layers. At the beginning of the trials the age of the laying hens (192 birds, type ‘ISA Brown’) were as follows:
Preceding the trials the hens were fed a low carotenoid basal diet (produced at the CRNA) without carotenoid supplementation for at least 28 days. During the trials, the control group received the low carotenoid basal diet containing less than 2 mg total xanthophylls per kg of feed. The other animals were fed this diet supplemented with the appropriate pigments for three weeks. The diet was given to the animals ad libitum in mash form. The hens had free access to tap water. Beside the unsupplemented control treatment, treatments were carried out involving the provision of supplemented feed, the results of these treatments being presented in Tables 7-9.
Egg yolk color was assessed as described by Steinberg, et al. (Arch. Geflügelk 64 (4), 180-187 (2000)). The yolks were manually separated from the whites of the eggs. The isolated yolks of three to six eggs were combined, weighed, and stirred with a glass rod until the color appeared homogeneous. The color hue was visually scored using the Roche Yolk Colour Fan (RYCF, version 1993). An aliquot of the pooled egg yolks was transferred into a glass cuvette yielding an approximately 2 cm thick layer. The color was then measured by means of a Dr. Lange Xeno Color LS 100 spectro-colorimeter with diffuse D65-illumination and a 8° viewing angle.
as §3

[4] = Carotenoid ester content and deposition rate in egg yolk of laying hens (HPLC); assay type: in vivo, laying hens (ISA Brown); conditions: egg yolk; for Deposition Rate Target Values % of Controls / Ethyl β-apo-8′-carotenoate Equivalents % of Controls: Table 8; for Deposition Rate % of Controls: Table 10
Description: as §1
Each year in February the pigmentation trials are started with a new flock of layers.
Preceding the trials the hens were fed a low carotenoid basal diet (produced at the CRNA) without carotenoid supplementation for at least 28 days. During the trials, the control group received the low carotenoid basal diet containing less than 2 mg total xanthophylls per kg of feed. The other animals were fed this diet supplemented with the appropriate pigments for three weeks. The diet was given to the animals ad libitum in mash form. The hens had free access to tap water.
Peaks were related to all-E- and Z-isomers of the various carotenoid esters by chromatography of heat-isomerized solutions of the respective reference substances in n-hexane. The HPLC system was calibrated with the all-E-isomer of ethyl β-apo-8′-carotenoate. The response factor of the various derivatives was deduced from that of ethyl β-apo-8′-carotenoate taking into account the respective molecular weight. The content of the Z-isomer fractions was calculated based on the response of the all-E-isomer and using a correction factor of 1.4 to account for the lower specific absorbance of the Z-isomers.
as §4
For the extraction of egg yolk, 10 g of pooled and homogenised yolk were mixed with 10 ml of demineralized water using a dispersion instrument (Polytron). 1.0 g of diluted egg yolk was introduced into a 10 ml test tube with 1.0 ml of demineralized water and 2.0 ml of ethanol, and the contents were mixed on a Vortex shaker. After addition of 4.0 ml of n-hexane, the mixture was further treated as described for plasma.

[5] = trials H-18, 22/99, 1, 2, 4, 5, 8 mg/kg feed, Table 10
[6] = trials H-18, 22/99, 1, 2, 4, 5, 8 mg/kg feed
[7] = trial H-25/99, 5.0 mg/kg feed, Table 8
[8] = trial H-25/99, 5.0 mg/kg feed, Table 10

| SMILES | Shanks Chroma C*ab % of Controls [1] [%] | Shanks Color Hue h*ab % of Controls [1] [%] | Shanks Visual Classification [1] | Skin Chroma C*ab % of Controls [1] [%] | Skin Color Hue h*ab % of Controls [1] [%] | Skin Visual Classification [1] | Analytical Content as Equivalent of Ethyl β-apo-8′-carotenoate in % of control Fat [2] [%] | Analytical Content as Equivalent of Ethyl β-apo-8′-carotenoate in % of control Plasma [2] [%] | Analytical Content as Equivalent of Ethyl β-apo-8′-carotenoate in % of control Skin [2] [%] | Color Fan Value % of Controls [3, 7] [%] | Chroma C*ab % of Controls [3, 8] [%] | Color Fan Value % of Controls [3, 8] [%] | Color Hue h*ab % of Controls [3, 8] [%] | Deposition Rate Target Values % of Controls ([4]; trial H-25/99, 5.0 mg/kg feed) [%] | Ethyl β-apo-8′-carotenoate Equivalents % of Controls ([4]; trial H-25/99, 5.0 mg/kg feed) [%] | Deposition Rate % of Controls ([4]; trial H-25/99, 5.0 mg/kg feed) [%] | further results |
| --- | --- | --- | --- | --- | --- | --- | --- | --- | --- | --- | --- | --- | --- | --- | --- | --- | --- |
| CCC(C)OC(=O)C(C)=CC=CC(C)=CC=CC=C(C)C=CC=C(C)C=CC1=C(C)CCCC1(C)C (stereo not drawn) [(5), sec. butyl beta-apo-8′-carotenoate] | 100 | 101 | + | 100 | 101 | + | 53 | 94 | 74 |  |  |  |  |  |  |  | Color Fan Value % of Controls ([3]; trials H-18, 22/99, 1, 2, 4, 5, 8 mg/kg feed, Table 8): 88%; Chroma C*ab % of Controls [3, 5]: 103%; Color Hue h*ab % of Controls [3, 5]: 102%; Color Fan Value % of Controls ([3]; trials H-18, 22/99, 1, 2, 4, 5, 8 mg/kg feed, comparison within same trials, Table 10): 93^1) %; Deposition Rate Target Values % of Controls [4, 6]: 97%; Ethyl β-apo-8′-carotenoate Equivalents % of Controls [4, 6]: 90%; Deposition Rate % of Controls ([4]; trials H-18, 22/99, 1, 2, 4, 5, 8 mg/kg feed, comparison within same trials): 84^1) % |
| CC(C=CC=C(C)C=CC1=C(C)CCCC1(C)C)=CC=CC=C(C)C=CC=C(C)C(=O)OC1CCCCC1 [(16), cyclohexyl beta-apo-8′-carotenoate] | 84 | 103 | (+) | 80 | 95 | + | 38 | 60 | 44 | 108 | 112 | 108 | 97 | 99 | 82 | 99 |  |
| CC(C=CC=C(C)C=CC1=C(C)CCCC1(C)C)=CC=CC=C(C)C=CC=C(C)C(=O)OCC(C)(C)C [(8), 2,2-dimethylpropyl beta-apo-8′-carotenoate] | 98 | 101 | (+) | 98 | 100 | (+) | 62 | 78 | 76 | 108 | 94 | 108 | 101 | 89 | 81 | 89 |  |
